From patent publication US20240327463A1, “ANTIBACTERIAL PRODUCTS” (priority 2017, published 2024)
≈ marks a conversion by molar mass, not a printed value. Bridge positions count the residues as written; N and C are the ends. Square brackets hold non-standard residues; d marks the D form. Peptide text beside a SMILES is read from it. I, II: the chains in the order shown. dNMeF = CN[C@H](Cc1ccccc1)C(=O)O

Key:
[1] = rabbit; 50 μl of 0.3% (w/v) topically 4 times/day; fluorescein staining
Method: The in vivo toxicity of Compound 26 in a rabbit corneal damage model was examined. A 50 μl of 0.3% (w/v) solution was applied topically (4 times/day) to the circularly debrided cornea and reepithelialisation was monitored by fluorescein staining. Vehicle alone served as control.

MRSA ATCC 33591 [2] = test system: MRSA ATCC 33591
[3] = test system: Staphylococcus saprophyticus ATCC 49453; format: cell-based; conditions: Staphylococcus saprophyticus ATCC 49453; Table 11
How it was run: (§1)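 Bacteria were cultured in Mueller Hinton broth, and all incubations were run at 37 °C. Compounds were serially diluted in Mueller Hinton across the plate up to well 11. Each determination was repeated three times.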

[4] = test system: Bacillus Cereus ATCC 11788; format: cell-based
How it was run: as §1

[5] = test system: Staphylococcus saprophyticus ATCC 49907; format: cell-based; conditions: Staphylococcus saprophyticus ATCC 49907; Table 11
How it was run: as §1

[6] = test system: Staphylococcus saprophyticus ATCC BAA 750; format: cell-based; conditions: Staphylococcus saprophyticus ATCC BAA 750; Table 11
How it was run: as §1

[7] = test system: Staphylococcus saprophyticus ATCC 15305; format: cell-based; conditions: Staphylococcus saprophyticus ATCC 15305; Table 11
How it was run: as §1

[8] = test system: Bacillus Subtilis ATCC 6633; format: cell-based
How it was run: as §1

MRSA 1003 = format: cell-based, Staphylococcus aureus
How it was run: as §1

VRE 1002 = format: cell-based, Enterococcus faecalis
How it was run: as §1

VRE 1004 = format: cell-based, Enterococcus faecalis
How it was run: as §1

VRE 1008 = format: cell-based, Enterococcus faecalis
How it was run: as §1

VRE 1001 = format: cell-based, Enterococcus faecalis
How it was run: as §1

MRSA ATCC 700699 = assay: microbe, parasite or virus in culture
How it was run: (§2)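 Twofold broth microdilution in Mueller Hinton from a 512 μg/ml starting well, peptides dissolved in DMSO. Plates incubated 24 hours at 37° C, in triplicate. MIC read as lowest concentration without visible growth.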

[9] = test system: Staphylococcus aureus ATCC 29213; assay: microbe, parasite or virus in culture
How it was run: as §2

MRSA DR 42412 (sputum) = assay: microbe, parasite or virus in culture
How it was run: as §2

VRE ATCC 29212 = assay: microbe, parasite or virus in culture; conditions: ATCC 29212
How it was run: as §2

MRSA DM21455 (eye) = assay: microbe, parasite or virus in culture
How it was run: as §2

VRE ATCC 700802 = assay: microbe, parasite or virus in culture
How it was run: as §2

in vitro = conditions: human
Method: (§3) It was important to evaluate the cytotoxicity of Compound 26 on mammalian cells prior to in vivo studies. The cytotoxicity of Compound 26 in human lung epithelial cell line A549 and primary dermal fibroblasts (hDFs) was determined. Both of these cell culture models are already established for evaluation of cytotoxicity of antimicrobial peptides.
(§4) The stock solution of Compound 26 (500 μg/ml) was prepared fresh by directly dissolving Compound 26 in cell culture medium and used. Cells were treated with dimethyl sulfoxide (DMSO, 0.1% v/v) or nocodazole (5 μg/ml dissolved in DMSO) as controls. At the end of the treatment period, metabolic activities of cells were quantified by MTS-based cell viability assay. […] After 24 h treatment with Compound 26, A549 cells (c) and hDFs (d) were fixed, fluorescently stained with rhodamine-phalloidin (red), alexa fluor 488 conjugated anti-α-tubulin (green) and Hoechst 33342 (blue) and imaged using IN Cell Analyzer 2200 automated microscope. Representative images of cells treated with Compound 26 (62.5 μg/ml for 24 h) or nocodazole (10 μg/ml, toxicity control) are shown in FIG. 2 c,d.

[10] = test system: human lung epithelial cell line A549; assay: in vitro
Method: as §3, §4

[11] = test system: human primary dermal fibroblasts (hDFs); assay: in vitro
Method: as §3, §4

[12] = test system: panel of antibiotic-resistant and antibiotic susceptible Gram-positive pathogens; conditions: average over tested strains
How it was run: as §2

MRSA ATCC 33591 [13] = conditions: Table 10; MRSA ATCC 33591
How it was run: as §2

S. aureus/MRSA strains = assay: Minimum bactericidal concentrations against S. aureus/MRSA strains; format: cell-based, Staphylococcus aureus; conditions: tested S. aureus/MRSA strains
Excerpt: (§5) The inclusion of 3 arginines in the above case likely perturbs the amphiphilic character of the teixobactin, resulting in a decrease in activity. […] Importantly, the hydrophobic-hydrophilic balance of these analogues was similar to natural teixobactin (two cationic charges). […] The minimum bactericidal concentrations (MBC) of teixobactin analogues against S. aureus/MRSA strains (Table 11) has been further determined. […] In view of narrow MIC distribution values and bactericidal properties, attention was focused on Compound 26 and further investigated its biological properties.

S. aureus ATCC 29213 [14] = assay: Time-kill kinetics against S. aureus ATCC 29213; format: cell-based, Staphylococcus aureus; conditions: 0.5 μg/ml or 1 μg/ml; at 8 h
S. aureus ATCC 29213 [15] = test system: S. aureus ATCC 29213
S. aureus ATCC 29213 [16] = assay: Mice-eye model of S. aureus keratitis; format: in vivo; conditions: for mean corneal thickness: baseline 93.8±2.9 μm
Excerpt: The in vivo efficacy of Compound 26 in the mice-eye model of S. aureus keratitis was examined. S. aureus is one of the major etiological agents for bacterial keratitis and the toxic secretions produced by this microorganism have been implicated in corneal melt, leading to significant morbidity and vision loss. […] A total of 8 doses were applied and the progression of the infection was monitored by slit lamp examination, anterior segment optical coherent tomography (AS-OCT) and microbiological enumeration of the bacterial bioburden. Mice cornea treated with PBS had severe clinical presentation indicated by chemosis, significant presence of hypopyon like materials and corneal infiltrates (FIG. 4).

Pseudomonas aeruginosa = assay: Activity against Pseudomonas aeruginosa; format: cell-based
Excerpt: as §5

ATCC 29212 = assay: microbe, parasite or virus in culture; conditions: Enterococcus
How it was run: as §2

M. smegmatis ATCC 607 = assay: microbe, parasite or virus in culture; conditions: Mycolicibacterium smegmatis, ATCC607
How it was run: as §2

A. baumannii = format: cell-based
How it was run: as §1

MRSA = format: cell-based, Staphylococcus aureus
How it was run: as §1

E. coli = format: cell-based, Escherichia coli
Method: Bacteria were grown on Mueller Hinton broth (oxoid). All incubations were at 37° C. Dilutions were carried out using Mueller Hinton. […] This process was repeated up to well 11. […] This was repeated three times. […] Results are tabulated in the Examples.

CC[C@@H](C)[C@@H](NC(=O)[C@@H](CCCNC(=N)N)NC(=O)[C@H](CO)NC(=O)[C@@H](NC(=O)[C@@H](Cc1ccccc1)NC)[C@@H](C)CC)C(=O)N[C@H](C(=O)N[C@@H](CO)C(=O)N[C@H]1C(=O)N[C@@H](C)C(=O)N[C@@H](CC(C)C)C(=O)N[C@@H]([C@@H](C)CC)C(=O)O[C@H]1C)[C@@H](C)CC [Compound 26, D-Arg4-Leu10-teixobactin]
corneal wound closure / reepithelialisation versus PBS [1]: no significant difference in wound closure
calculated frequency of resistance (MRSA ATCC 33591 [2]): < 10^−10
resistant mutants, single step resistance (MRSA ATCC 33591 [2]; 5×, 10×, 20×MIC): could not be obtained
MIC [3]: <0.0625 µg/mL
MIC [4]: 0.5 µg/mL (≈ 0.407 µM)
MIC [5]: <0.0625 µg/mL
MIC [6]: <0.0625 µg/mL
MIC [7]: <0.0625 µg/mL
MIC [8]: 0.125 µg/mL (≈ 0.102 µM)
MIC (MRSA 1003): 0.5 µg/mL (≈ 0.407 µM)
MIC (VRE 1002): 1 µg/mL (≈ 0.813 µM)
MIC (VRE 1004): 0.25 µg/mL (≈ 0.203 µM)
MIC (VRE 1008): 0.5 µg/mL (≈ 0.407 µM)
MIC (VRE 1001): 0.5 µg/mL (≈ 0.407 µM)
MIC (MRSA ATCC 700699; ATCC 700699): 0.25 µg/mL (≈ 0.203 µM)
MIC ([9]; SA29213, Table 11): <0.0625 µg/mL
MIC (MRSA DR 42412 (sputum); DR 42412 (sputum)): 0.0313 µg/mL (≈ 0.0255 µM)
MIC (VRE ATCC 29212): 0.5 µg/mL (≈ 0.407 µM)
MIC (MRSA DM21455 (eye); DM21455 (eye)): 0.0313 µg/mL (≈ 0.0255 µM)
MIC (VRE ATCC 700802; ATCC 700802): 0.5 µg/mL (≈ 0.407 µM)
viability at 24 h, 250 µg/mL (in vitro; A549 lung epithelial cells): 80%
viability at 24 h, 250 µg/mL (in vitro; primary dermal fibroblasts (hDFs)): 80%
cell morphology, high content images [10]: absence of any cytoskeletal and nuclear disruption
cell morphology, high content images [11]: absence of any cytoskeletal and nuclear disruption
average MIC [12]: 0.27 µg/mL
MIC (MRSA) (MRSA ATCC 33591 [13]): 0.125 µg/mL (≈ 0.102 µM)
MBC relative to MIC (S. aureus/MRSA strains): ≤ 4 times the MIC
decrease in bacterial viability (time-kill) (S. aureus ATCC 29213 [14]): ≥log10 decrease in bacterial viability
calculated frequency of resistance (S. aureus ATCC 29213 [15]): < 10^−10
resistant mutants, single step resistance (S. aureus ATCC 29213 [15]; 5×, 10×, 20×MIC): could not be obtained
mean corneal thickness (S. aureus ATCC 29213 [16]; 24 h post treatment, 0.3% topical): 92.3±12.5 μm
mean corneal thickness (S. aureus ATCC 29213 [16]; 48 h post treatment, 0.3% topical): 121.7±3.2 μm
cornea with detectable bacterial colonies (S. aureus ATCC 29213 [16]; after 8 dosages): Five out of six
mean log10 CFU/tissue (S. aureus ATCC 29213 [16]; corneal tissues harvested after 8 dosages, ± standard error of the mean): 3.97±0.19 log10 CFU/tissue
clinical appearance of infected cornea (slit lamp) (S. aureus ATCC 29213 [16]; mice, 0.3% topical, 8 doses from 6 h p.i.): remained clear and no signs of corneal defects
activity against Pseudomonas aeruginosa (Gram negative bacteria) (Pseudomonas aeruginosa): inactive

CN[C@H](CC(C)C)C(=O)N[C@H]1C(=O)N[C@@H](CC(N)=O)C(=O)N[C@H]2C(=O)N[C@H]3C(=O)N[C@H](C(=O)N[C@H](C(=O)O)c4cc(O)cc(O)c4-c4cc3ccc4O)[C@H](O)c3ccc(c(Cl)c3)Oc3cc2cc(c3O[C@@H]2O[C@H](CO)[C@@H](O)[C@H](O)[C@H]2O[C@H]2C[C@](C)(N)[C@H](O)[C@H](C)O2)Oc2ccc(cc2Cl)[C@H]1O [Vancomycin, reference compound]
MIC (MRSA ATCC 700699; Staphylococcus aureus): 2 µg/mL (≈ 1.38 µM)
MIC (ATCC 29212): > 4 µg/mL
MIC ([9]; Staphylococcus aureus, ATCC29213): 4 µg/mL (≈ 2.76 µM)
MIC (MRSA DR 42412 (sputum); Staphylococcus aureus, MRSA): 2 µg/mL (≈ 1.38 µM)
MIC (M. smegmatis ATCC 607): > 64 µg/mL
MIC (MRSA DM21455 (eye); Staphylococcus aureus, MRSA): 2 µg/mL (≈ 1.38 µM)
MIC (VRE ATCC 700802; Enterococcus): > 4 µg/mL

CC[C@@H](C)[C@@H](NC(=O)[C@@H](CCC(N)=O)NC(=O)[C@H](CCCCNC(=O)[C@H](CCCCN)NC(=O)[C@H](CCCCN)NC(=O)[C@H](CCCCN)NC(=O)[C@H](CCCCN)NC(=O)[C@H](CCCCN)NC(=O)[C@@H](N)CCCNC(=N)N)NC(=O)[C@@H](NC(=O)[C@@H](Cc1ccccc1)NC)[C@@H](C)CC)C(=O)N[C@H](C(=O)N[C@@H](CO)C(=O)N[C@H]1C(=O)N[C@@H](C)C(=O)N[C@@H](CC(C)C)C(=O)N[C@@H]([C@@H](C)CC)C(=O)O[C@H]1C)[C@@H](C)CC [Compound 54, Leu10-Teixobactin-3-(S3K-K5R) conjugate] (I: H-[dNMeF]IK[dQ][dI]IS[dT]ALI / II: H-RKKKKK; amide I:3-II:C; ester I:8-I:C)
MIC A baumannii (A. baumannii): 2 µg/mL (≈ 0.981 µM)
MIC (MRSA) (MRSA): 8 µg/mL (≈ 3.92 µM)
MIC Ecoli (E. coli): 16 µg/mL (≈ 7.84 µM)
